These results are taken from US20250154163A1, “Pyrimidinone-Containing 17-Beta-Hydroxysteroid Dehydrogenase Type 13 Inhibitors” (ENANTA PHARMACEUTICALS, INC., priority 2023, published 2025).

The target in the assay is T1, human HSD17β13 (stable HEK293T cell line overexpressing human HSD17β13) (Homo sapiens, UniProt Q7Z5P4).
T1 construct: expressed in transfected cells
T1 sequence (Q7Z5P4 20-300): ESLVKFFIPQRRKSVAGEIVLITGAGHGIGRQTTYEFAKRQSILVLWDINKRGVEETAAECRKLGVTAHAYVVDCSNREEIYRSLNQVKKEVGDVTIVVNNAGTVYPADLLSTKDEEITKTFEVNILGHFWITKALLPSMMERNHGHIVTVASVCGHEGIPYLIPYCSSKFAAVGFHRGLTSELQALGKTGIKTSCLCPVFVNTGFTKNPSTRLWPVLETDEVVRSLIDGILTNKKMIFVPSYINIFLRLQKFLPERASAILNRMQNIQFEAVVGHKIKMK
Put plainly: HSD17β13 inhibitor cell-based screening assay (conversion of estradiol-d2 to estrone-d2 by RF-MS). To be noted: conversion of estradiol-d2 to estrone-d2 after 24 hours. The protocol: The purpose of this cell-based assay is to determine the cellular efficacy (IC50) of HSD17β13 inhibitors in a stable HEK293 T cell line overexpressing human HSD17β13. The assay measures by Rapid Fire mass-spectrometry (RF-MS) the conversion of estradiol-d2 to estrone-d2. Cytotoxicity was also assessed via luminescent signal generated by the ATPlite viability assay reagent. To screen compounds for HSD17013 inhibition, black 384-well plates were seeded with 1000× concentration of compounds in a 9-point 1:3 dilution curve (final top concentration of 10 μM) as well as 1000× concentration of 17β-estradiol-d2 (5 μM final concentration) added to all wells. HEK293T cells stably overexpressing human HSD17013 and the parent HEK293T cell lines were then seeded in the plates on top of the compounds and substrate in MEM media containing 1% charcoal/dextran-treated FBS. Supernatant is collected and immediately frozen after 24 hours of incubation, and conversion of estradiol-d2 to estrone-d2 is measured at Pure Honey by RF-MS. The remaining media in the plate was removed from the wells and replaced with ATPlite viability assay reagent. Luminescent signal from the ATPlite reagent was measured on the Envision plate reader. 10 μL of 10 mM compounds stocks (1000×) dissolved in DMSO were pipetted into the appropriate wells on the 384 LDV plate (Labcyte; cat. no.: LP-0200) and the appropriate volumes of DMSO solvent were included onto an intermediate plate to further dilute the compound stocks to complete the 9-pt dose curve (final top concentration of 10 μM). 10 μL per well of 5 mM estradiol-d2 (1000×) (Cayman; item no.: 9002846) (5 μM final concentration) dissolved in DMSO was seeded into the appropriate number of wells on the same source plate as the compounds. The Echo 650 (Labcyte) was used for compound dilutions and dispensing both the compounds and the substrate onto a dry 384-well black assay plate (Falcon/Corning; cat. no.:353962). Afterwards, cells were immediately counted and seeded onto the plate. Cells were cultured for expansion in EMEM (ATCC; cat. no.: 30-2003)+10% FBS (Hyclone; cat. no.: SH3007003)+1×PenStrep (Gibco; cat. no.: 15140-122). All media for stable cell line overexpressing HSD17013 also included […] zeocin (Invitrogen; cat. no.: 46-0509) for selection. To prepare cells for seeding into the 384-well assay plate, cells were trypsinized for 3 minutes in the incubator. The Trypsin-EDTA (0.25%) (Gibco; cat. no.: 25200056) was neutralized with EMEM complete culture medium warmed to 37° C. Cells were then centrifugated at 300×g for 5 minutes at room temperature. The cell pellet was resuspended in phenol red-free MEM (Gibco; cat. no.: 51200-038)+1% charcoal/dextran-treated FBS (Hyclone; cat. no.: SH3006803) and 1×PenStrep warmed to 37° C. Cells were then counted using the TC20 automated cell-counter (Bio-Rad) and disposable duel chamber counting slides (Bio-Rad; cat. no.: 1450016) for a cell density of 1.5E5 cells/mL to then seed into the assay plate at 7.5E3 cells/well with 50 μL of media per well. Prior to the 24-hour time point, a solution of 1% formic acid (10×) (Honeywell; cat. no.: 94318) in MEM phenol red-free MEM+1% charcoal/dextran-treated FBS and 1×PenStrep was made. ATPlite luminescent ATP detection reagent (PerkinElmer; cat. no.: 6016739) was prepared according to the manufacturer's instructions. A new 384-well Falcon plate (collection plate) was seeded with 2 μL per well of 10× formic acid and then 18 μL of cell supernatant was added onto the formic acid, resulting in a 20 μL per well solution of 0.1% formic acid (1×) in supernatant. The plate of collected supernatant was immediately frozen on dry ice before being stored at −80° C. The collection plate was shipped to Momentum Biotechnologies for analysis. The remaining supernatant in the assay plate was discarded and 25 μL of ATPlite reagent was added to each well. […]

By IC50 is commonly meant the concentration needed to halve the response being measured. A high value points to lower potency. Regarding `Cc1ncc(Cn2c(-c3cc(F)c(F)cc3C3CC3)nc3sc4c(O)c(Cl)ccc4c3c2=O)o1` [Example 61, 7-chloro-2-(2-cyclopropyl-4,5-difluorophenyl)-8-hydroxy-3-((2-methyloxazol-5-yl)methyl)benzo[4,5]thieno[2,3-d]pyrimidin-4(3H)-one], the IC50 is less than 100 nM.

Take `O=c1c2c(nc(-c3cc(F)c(F)cc3C3CC3)n1Cc1ccno1)sc1c(O)c(Cl)ccc12` [Example 62, 7-chloro-2-(2-cyclopropyl-4,5-difluorophenyl)-8-hydroxy-3-(isoxazol-5-ylmethyl)benzo[4,5]thieno[2,3-d]pyrimidin-4(3H)-one]: the IC50 was less than 100 nM.

`O=c1c2c(nc(-c3cc(F)c(F)cc3C3CC3)n1Cc1cc(C(F)F)no1)sc1c(O)c(Cl)ccc12` [Example 65, 7-chloro-2-(2-cyclopropyl-4,5-difluorophenyl)-3-((3-(difluoromethyl)isoxazol-5-yl)methyl)-8-hydroxybenzo[4,5]thieno[2,3-d]pyrimidin-4(3H)-one] showed an IC50 of less than 100 nM.

Consider `O=c1c2c(nc(-c3ccc(C(F)(F)F)nc3C3CC3)n1Cc1cnc(C(F)(F)F)nc1)sc1c(O)c(Cl)ccc12` [Example 67, 7-chloro-2-(2-cyclopropyl-6-(trifluoromethyl)pyridin-3-yl)-8-hydroxy-3-((2-(trifluoromethyl)pyrimidin-5-yl)methyl)benzo[4,5]thieno[2,3-d]pyrimidin-4(3H)-one], for which the IC50 was less than 100 nM.

In turn, `O=c1c2c(nc(-c3ccc(C(F)(F)F)nc3C3CC3)n1Cc1ccc(C(F)(F)F)nc1)sc1c(O)c(Cl)ccc12` [Example 68, 7-chloro-2-(2-cyclopropyl-6-(trifluoromethyl)pyridin-3-yl)-8-hydroxy-3-((6-(trifluoromethyl)pyridin-3-yl)methyl)benzo[4,5]thieno[2,3-d]pyrimidin-4(3H)-one] returned an IC50 of less than 100 nM.

`CS(=O)(=O)c1ccc(-c2nc3sc4c(O)c(Cl)ccc4c3c(=O)n2Cc2ccc(C(F)(F)F)nc2)c(C2CC2)c1` [Example 69, 7-chloro-2-(2-cyclopropyl-4-(methylsulfonyl)phenyl)-8-hydroxy-3-((6-(trifluoromethyl)pyridin-3-yl)methyl)benzo[4,5]thieno[2,3-d]pyrimidin-4(3H)-one] had an IC50 of less than 100 nM.

`Cn1cc(Cn2c(-c3ccc(S(C)(=O)=O)cc3C3CC3)nc3sc4c(O)c(Cl)ccc4c3c2=O)ccc1=O` [Example 70, 7-chloro-2-(2-cyclopropyl-4-(methylsulfonyl)phenyl)-8-hydroxy-3-((1-methyl-6-oxo-1,6-dihydropyridin-3-yl)methyl)benzo[4,5]thieno[2,3-d]pyrimidin-4(3H)-one] displayed an IC50 of less than 100 nM.

In turn, `COCCOc1ccc(-c2nc3sc4c(O)c(Cl)ccc4c3c(=O)n2Cc2cnco2)c(C2CC2)c1` [Example 74] came in with an IC50 of less than 100 nM.

Turning to `CS(=O)(=O)c1ccc(-c2nc3sc4c(O)c(Cl)ccc4c3c(=O)n2Cc2cnco2)c(C2CC2)c1` [Example 80], the IC50 is less than 100 nM.

Turning to `CS(=O)(=O)c1ccc(-c2nc3sc4c(O)c(Cl)ccc4c3c(=O)n2Cc2cc(C(F)(F)F)no2)c(C2CC2)c1` [Example 81], the IC50 was less than 100 nM.

In the case of `O=c1c2c(nc(-c3cc(F)c(Cl)cc3C3CC3)n1Cc1cc(C(F)(F)F)no1)sc1c(O)c(Cl)ccc12` [Example 84], the IC50 is less than 100 nM.

As for `O=c1c2c(nc(-c3ccccc3C3CC3)n1Cc1cnco1)sc1c(O)c(Cl)ccc12` [Example 87], the IC50 is less than 100 nM.

Consider `COc1ccc(-c2nc3sc4c(O)c(Cl)ccc4c3c(=O)n2C[C@@H]2CC(=O)N(C)C2)c(C2CC2)c1` [Example 88], for which the IC50 was less than 100 nM.

`O=c1c2c(nc(-c3ncc(F)cc3C3CC3)n1Cc1cnco1)sc1c(O)c(Cl)ccc12` [Example 89] came in with an IC50 of less than 100 nM.

`O=c1c2c(nc(-c3ncc(C(F)(F)F)cc3C3CC3)n1Cc1cnco1)sc1c(O)c(Cl)ccc12` [Example 90] gave an IC50 of less than 100 nM.

For the compound `Cc1cc(-c2nc3sc4c(O)c(Cl)ccc4c3c(=O)n2Cc2cnco2)c(C2CC2)s1` [Example 91], the IC50 was less than 100 nM.

The compound `O=c1c2c(nc(-c3ccc(C(F)(F)F)nc3C3CC3)n1Cc1cnco1)sc1c(O)c(Cl)ccc12` [Example 92] had an IC50 of less than 100 nM.

Take `COc1ccc(-c2nc3sc4c(O)c(Cl)ccc4c3c(=O)n2Cc2cnco2)c(C2CC2)n1` [Example 93]: the IC50 was less than 100 nM.

As to `Cc1cc(C2CC2)c(-c2nc3sc4c(O)c(Cl)ccc4c3c(=O)n2Cc2cnco2)s1` [Example 94], the IC50 was less than 100 nM.

In the case of `COCCn1cc(Cn2c(-c3ccc(OC)cc3C3CC3)nc3sc4c(O)c(Cl)ccc4c3c2=O)cn1` [Example 95], the IC50 is less than 100 nM.

The compound `N#Cc1ccc(-c2nc3sc4c(O)c(Cl)ccc4c3c(=O)n2Cc2cc(C(F)(F)F)no2)c(C2CC2)c1` [Example 98] came in with an IC50 of less than 100 nM.

Consider `O=c1c2c(nc(-c3ncc(C(F)(F)F)cc3C3CC3)n1Cc1ccc(C(F)(F)F)nc1)sc1c(O)c(Cl)ccc12` [Example 100], for which the IC50 was less than 100 nM.

`O=c1c2c(nc(-c3ncc(F)cc3C3CC3)n1Cc1cnc(C(F)(F)F)nc1)sc1c(O)c(Cl)ccc12` [Example 101] returned an IC50 of less than 100 nM.

`O=c1c2c(nc(-c3ncc(F)cc3C3CC3)n1Cc1ccc(C(F)(F)F)nc1)sc1c(O)c(Cl)ccc12` [Example 102]: the IC50 is less than 100 nM.

Consider `O=c1c2c(nc(-c3ncc(Cl)cc3C3CC3)n1Cc1cc(C(F)(F)F)no1)sc1c(O)c(Cl)ccc12` [Example 103], for which the IC50 was less than 100 nM.

Regarding `COc1cc(C2CC2)c(-c2nc3sc4c(O)c(Cl)ccc4c3c(=O)n2Cc2cnco2)cc1Br` [Example 104, 2-(5-bromo-2-cyclopropyl-4-methoxyphenyl)-7-chloro-8-hydroxy-3-(oxazol-5-ylmethyl)benzo[4,5]thieno[2,3-d]pyrimidin-4(3H)-one], the IC50 was less than 100 nM.

In turn, `COc1cc(C2CC2)c(-c2nc3sc4c(O)c(Cl)ccc4c3c(=O)n2Cc2cnco2)cc1C1CC1` [Example 107, 7-chloro-2-(2,5-dicyclopropyl-4-methoxyphenyl)-8-hydroxy-3-(oxazol-5-ylmethyl)benzo[4,5]thieno[2,3-d]pyrimidin-4(3H)-one] showed an IC50 of 100 to 500 nM.

`COc1cc(C2CC2)c(-c2nc3sc4c(O)c(Cl)ccc4c3c(=O)n2Cc2cnco2)cc1C` [Example 108] had an IC50 of less than 100 nM.

As to `COc1cc(C2CC2)c(-c2nc3sc4c(O)c(Cl)ccc4c3c(=O)n2Cc2cnco2)cc1C1CCCC1` [Example 109, 7-chloro-2-(5-cyclopentyl-2-cyclopropyl-4-methoxyphenyl)-8-hydroxy-3-(oxazol-5-ylmethyl)benzo[4,5]thieno[2,3-d]pyrimidin-4(3H)-one], the IC50 is 500 to 1000 nM.

For the compound `O=c1c2c(nc(-c3ccc(-c4ncco4)cc3C3CC3)n1Cc1cnco1)sc1c(O)c(Cl)ccc12` [Example 110, 7-chloro-2-(2-cyclopropyl-4-(oxazol-2-yl)phenyl)-8-hydroxy-3-(oxazol-5-ylmethyl)benzo[4,5]thieno[2,3-d]pyrimidin-4(3H)-one], the IC50 is less than 100 nM.
